Source: ChEMBL document CHEMBL4828747, “Structure-Activity Relationships of Withanolides as Antiproliferative Agents for Multiple Myeloma: Comparison of Activity in 2D Models and a 3D Coculture Model” (J Nat Prod, 2021)

Assays:
RPMI-8226 [1] = assay: Antiproliferative activity against human RPMI-8226 cells cultured as 3D-spheroids assessed as reduction in cell viability after 48 hrs by Celltiter-Glo assay; assay type: functional, cell-based; details: RPMI-8226, 48 h
[2] = Antiproliferative activity against human MM1.R cells assessed as reduction in cell viability incubated for 72 hrs by XTT assay; assay type: functional, cell-based; details: MM.1R
RPMI-8226 [3] = assay: Antiproliferative activity against human RPMI 8226 cells assessed as reduction in cell viability incubated for 72 hrs by XTT assay; assay type: functional, cell-based; details: RPMI-8226, 72 h
MM1.S = assay: Antiproliferative activity against human MM1.S cells assessed as reduction in cell viability incubated for 72 hrs by XTT assay; assay type: functional, cell-based
[4] = Stability in human RPMI 8226 cells medium measured upto 72 hrs by HPLC analysis; assay type: ADME, cell-based; details: rpmi-8226, 72 h

SMILES | IC50 (RPMI-8226 [1]) [nM] | IC50 [2] [nM] | IC50 (RPMI-8226 [3]) [nM] | IC50 (MM1.S) [nM] | Stability [4]
CC1=C(CO)C(=O)O[C@@H]([C@@H](C)[C@H]2CC[C@H]3[C@@H]4C[C@H]5O[C@]56[C@@H](O)C=CC(=O)[C@]6(C)[C@H]4CC[C@]23C)C1 [WITHAFERIN A] | 1600 | 263 | 258 | 53 | –
CC(=O)O[C@@H]1C=CC(=O)[C@]2(C)[C@H]3CC[C@]4(C)[C@@H]([C@@](C)(O)[C@H]5CC(C)=C(C)C(=O)O5)CC[C@H]4[C@@H]3C[C@H]3O[C@]132 | 1640 | 522 | 301 | 601 | –
CC1=C(C)C(=O)O[C@@H]([C@](C)(O)[C@H]2CC[C@H]3[C@@H]4C[C@H]5O[C@]56C(O)C=CC(=O)[C@]6(C)[C@H]4CC[C@]23C)C1 (some centres not stated) | 1570 | 372 | 297 | 441 | –
CC(=O)OCC1=C(C)C[C@H]([C@@H](C)[C@H]2CC[C@H]3[C@@H]4CC=C5C(O)C=CC(=O)[C@]5(C)[C@H]4CC[C@]23C)OC1=O (some centres not stated) | – | – | 770 | – | –
CC1=C(CO)C(=O)O[C@@H]([C@@H](C)[C@H]2CC[C@H]3[C@@H]4C[C@H]5O[C@]56[C@@H](O)[C@@H](OS(=O)(=O)O)CC(=O)[C@]6(C)[C@H]4CC[C@]23C)C1 | 8520 | 129 | 218 | 115 | –
CC1=C(CO)C(=O)O[C@@H]([C@@H](C)[C@H]2CC[C@H]3[C@@H]4C[C@H]5O[C@]56[C@@H](O)[C@@H](n5ccnc5)CC(=O)[C@]6(C)[C@H]4CC[C@]23C)C1 | 2620 | 75 | 270 | 60 | –
CC(=O)OCC1=C(C)C[C@H]([C@@H](C)[C@H]2CC[C@H]3[C@@H]4CC=C5C(=O)C=C[C@@H](OC(C)=O)[C@]5(C)[C@H]4CC[C@]23C)OC1=O | – | – | 942 | – | –
CC1C(=O)O[C@@H]([C@](C)(O)C2=CC[C@@]3(O)[C@@H]4C[C@H]5O[C@]56[C@@H](O)C=CC(=O)[C@]6(C)[C@H]4CC[C@]23C)C[C@@H]1C (some centres not stated) | 2290 | 209 | 122 | 338 | –
C[C@H]1C[C@H]([C@](C)(O)[C@@]2(O)CC[C@H]3[C@@H]4C[C@H]5O[C@]56[C@@H](O)C=CC(=O)[C@]6(C)[C@H]4CC[C@@]32C)OC(=O)[C@@H]1C | > 40000 | 1090 | 506 | 1820 | –
CC(=O)OCC1=C(C)C[C@H]([C@@H](C)[C@H]2CC[C@H]3[C@@H]4C[C@H]5O[C@]56[C@@H](O)C=CC(=O)[C@]6(C)[C@H]4CC[C@]23C)OC1=O | 1510 | 107 | 212 | 114 | –
CC1=C(C)C(=O)O[C@@H]([C@](C)(O)[C@H]2CC[C@H]3[C@@H]4C[C@H]5O[C@]56[C@@H](O)C=CC(=O)[C@]6(C)[C@H]4CC[C@]23C)C1 [WITHANOLIDE D] | 980 | 106 | 76 | 107 | –
CC(=O)OCC1=C(C)C[C@H]([C@@H](C)[C@H]2CC[C@H]3[C@@H]4C[C@H]5O[C@]56[C@@H](O)[C@@H](OC(C)=O)CC(=O)[C@]6(C)[C@H]4CC[C@]23C)OC1=O | > 40000 | 374 | 252 | 229 | –
CC1=C(CO)C(=O)O[C@@H]([C@@H](C)[C@H]2CC[C@H]3[C@@H]4C[C@H](I)[C@]5(O)[C@@H](O)C=CC(=O)[C@]5(C)[C@H]4CC[C@]23C)C1 | – | – | 889 | – | –
CC(C)C[C@H](NC(=O)[C@H](Cc1ccccc1)NC(=O)c1cnccn1)B(O)O [BORTEZOMIB] | 6.4 | 2.4 | 4.7 | 2.5 | –
CC1=C(CO)C(=O)O[C@@H]([C@@H](C)[C@H]2CC[C@H]3[C@@H]4C[C@H]5O[C@]56[C@@H](O)[C@@H](N5CCCCC5)CC(=O)[C@]6(C)[C@H]4CC[C@]23C)C1 | 1870 | 80 | 484 | 55 | –
C[C@@H]1[C@@H](C)C(=O)OC12C[C@](C)(O)C1[C@H](C[C@H]3[C@@H]4C[C@H]5O[C@]56[C@@H](O)C=CC(=O)[C@]6(C)[C@H]4CC[C@]13C)O2 (some centres not stated) | 4650 | 366 | 239 | 559 | –

SMILES | IC50 (RPMI-8226 [1]) [nM] | IC50 [2] [nM] | IC50 (RPMI-8226 [3]) [nM] | IC50 (MM1.S) [nM] | Stability [4]
CC(=O)O[C@H]1C=CC(=O)[C@]2(C)[C@H]3CC[C@]4(C)[C@@H]([C@@](C)(O)[C@H]5CC(C)=C(C)C(=O)O5)CC[C@H]4[C@@H]3C[C@H]3O[C@]132 | 820 | 350 | 252 | 206 | –
CC1=C(C)C(=O)O[C@@H]([C@](C)(O)[C@H]2CC[C@H]3[C@@H]4CC=C5[C@H](O)C=CC(=O)[C@]5(C)[C@H]4CC[C@]23C)C1 | – | – | 768 | – | –
CC1=C(C)C(=O)O[C@@H]([C@](C)(O)[C@H]2CC[C@H]3[C@@H]4C[C@H](I)[C@]5(O)[C@@H](O)C=CC(=O)[C@]5(C)[C@H]4CC[C@]23C)C1 | – | – | 545 | – | –
CC1=C(C)C(=O)O[C@@H]([C@](C)(O)[C@H]2[C@@H](O)C[C@H]3[C@@H]4C[C@H](I)[C@]5(O)[C@@H](O)C=CC(=O)[C@]5(C)[C@H]4CC[C@]23C)C1 | – | – | 609 | – | –
CC1=C(C)C(=O)O[C@@H]([C@](C)(O)[C@H]2CC[C@H]3[C@@H]4C[C@H](I)[C@]5(O)C(=O)C=CC(=O)[C@]5(C)[C@H]4CC[C@]23C)C1 | – | – | 950 | – | –
C[C@H]1C(=O)O[C@@H]([C@](C)(O)[C@H]2CC[C@H]3[C@@H]4C[C@H]5O[C@]56[C@@H](O)C=CC(=O)[C@]6(C)[C@H]4CC[C@]23C)C[C@@]1(C)O | 12300 | 997 | 451 | 1290 | –
C[C@H]1[C@H]([C@@H](O)[C@](C)(O)[C@H]2[C@@H](O)C[C@H]3[C@@H]4C[C@H]5O[C@]56[C@@H](O)C=CC(=O)[C@]6(C)[C@H]4CC[C@]23C)OC(=O)[C@@H]1C | – | – | 601 | – | –
C[C@H]1C[C@H]([C@](C)(O)[C@H]2[C@@H](O)C[C@H]3[C@@H]4C[C@H]5O[C@]56[C@@H](O)C=CC(=O)[C@]6(C)[C@H]4CC[C@]23C)OC(=O)[C@@H]1C | 3230 | 425 | 273 | 623 | –
CC1=C(CO[Si](C)(C)C(C)(C)C)C(=O)O[C@@H]([C@@H](C)[C@H]2CC[C@H]3[C@@H]4C[C@H]5O[C@]56[C@@H](O[Si](C)(C)C)C=CC(=O)[C@]6(C)[C@H]4CC[C@]23C)C1 | – | – | – | – | Stable
CC1=C(C)C(=O)O[C@@H]([C@](C)(O)[C@H]2CC[C@H]3[C@@H]4CC=C5C(=O)C=CC(=O)[C@]5(C)[C@H]4CC[C@]23C)C1 | – | – | 780 | – | –
CC(=O)O[C@H]1C=CC(=O)[C@]2(C)[C@H]3CC[C@]4(C)[C@@H]([C@H](C)[C@H]5CC(C)=C(CO)C(=O)O5)CC[C@H]4[C@@H]3C[C@H]3O[C@]132 | 1390 | 129 | 203 | 97 | –
CC(=O)OCC1=C(C)C[C@H]([C@@H](C)[C@H]2CC[C@H]3[C@@H]4C[C@H]5O[C@]56C(=O)C=CC(=O)[C@]6(C)[C@H]4CC[C@]23C)OC1=O | – | – | 777 | – | –
CC1=C(C)C(=O)O[C@@H]([C@](C)(O)[C@H]2CC[C@H]3[C@@H]4C[C@H]5O[C@]56CC=CC(=O)[C@]6(C)[C@H]4CC[C@]23C)C1 | – | – | 744 | – | –
CC(=O)O[C@H]1C=CC(=O)[C@]2(C)[C@H]3CC[C@@]4(C)[C@H]([C@@H]3C[C@H]3O[C@]132)[C@H](OC(C)=O)C[C@@H]4[C@@](C)(O)[C@H]1CC(C)=C(C)C(=O)O1 | 3420 | 322 | 217 | 370 | –
CC(=O)OCC1=C(C)C[C@H]([C@@H](C)[C@H]2CC[C@H]3[C@@H]4CC=C5C(=O)C=CC(=O)[C@]5(C)[C@H]4CC[C@]23C)OC1=O | 9930 | 236 | 458 | 246 | –
CC1=C(C)C(=O)O[C@@H]([C@](C)(O)[C@H]2CC[C@H]3[C@@H]4C[C@H]5O[C@]56C(=O)C=CC(=O)[C@]6(C)[C@H]4CC[C@]23C)C1 | > 40000 | 858 | 276 | 750 | –
